Measured values published in ChEMBL document CHEMBL1201862, “PubChem BioAssay data set” (2004).
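How tested: cells in 96-well plates exposed to compound for 48 hours at five concentrations. Here, GI50 denotes the concentration required for 50% inhibition of growth.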 Activity calls are given as the source filed them. No stated cut-off is given here; in the data, active = GI50 up to about 1.1 µM and inactive = higher.

Experiments:
Experiment in all cases: NCI anticancer screen, dose series, 48 h
LXFL 529 = test system: LXFL 529
HOP-18 = test system: HOP-18
KM-20L2 = test system: KM-20L2
XF498 = test system: XF498
RXF 631 = test system: RXF 631
M19-MEL = test system: M19-MEL
DMS-114 = test system: DMS-114
DMS-273 = test system: DMS-273
Hs-578T = test system: Hs-578T

Measured: GI50

Cn1nc(-c2ccccc2)c(C(=O)/C=C/c2ccc(Cl)cc2)c(N2CCCC2)c1=O
inactive: LXFL 529 3.47 µM | HOP-18 6.49 µM | KM-20L2 3.78 µM | XF498 10.4 µM | RXF 631 6.12 µM | M19-MEL 7.24 µM | DMS-114 2.84 µM | DMS-273 3.62 µM

CC(=O)/C=C/c1cccc(N=S)c1
inactive: LXFL 529 5.78 µM | HOP-18 50 µM | KM-20L2 13.8 µM | XF498 > 100 µM | RXF 631 39 µM | M19-MEL 6.25 µM | DMS-114 23 µM | DMS-273 7.06 µM

CC(C)(C)OC(=O)c1cccnc1/C=N/O
inactive: LXFL 529 > 100 µM | HOP-18 > 100 µM | KM-20L2 51.4 µM | XF498 > 100 µM | RXF 631 > 100 µM | M19-MEL > 100 µM | DMS-114 > 100 µM | DMS-273 > 100 µM

CNC1=Nc2ccc(Cl)cc2C(OP(=O)(N2CCOCC2)N2CCOCC2)=NC1
inactive: LXFL 529 > 100 µM | HOP-18 > 100 µM | KM-20L2 > 100 µM | XF498 > 100 µM | RXF 631 > 100 µM | M19-MEL > 100 µM | DMS-114 > 100 µM | DMS-273 > 100 µM

COC(=O)c1cccc2cccc(C(=O)Nc3ccc(C)cc3C)c12
inactive: LXFL 529 > 100 µM | HOP-18 65.5 µM | KM-20L2 > 100 µM | XF498 54.6 µM | RXF 631 > 100 µM | M19-MEL > 100 µM | DMS-114 > 100 µM | DMS-273 > 100 µM

Cn1cc(NC(=O)c2cc(NC(=O)CCCCCC(=O)Nc3cc(C(=O)Nc4cc(C(=O)NCCC(=N)N)n(C)c4)n(C)c3)cn2C)cc1C(=O)NCCC(=N)N
inactive: LXFL 529 > 100 µM | HOP-18 > 100 µM | KM-20L2 > 100 µM | XF498 > 100 µM | RXF 631 > 100 µM | M19-MEL 15.2 µM | DMS-114 33 µM | DMS-273 67.3 µM

C1CN1c1nc(N2CC2)nc(N2CC2)n1
inactive: Hs-578T 26.5 µM | LXFL 529 13.9 µM | HOP-18 17.5 µM | KM-20L2 15.1 µM | XF498 4.89 µM | RXF 631 11.3 µM | M19-MEL 12.3 µM | DMS-114 2.99 µM | DMS-273 1.31 µM
